Assay results reported in EP0944595B1, “5-CYCLO INDOLE COMPOUNDS AS 5-HT1D RECEPTOR LIGANDS” (NPS Allelix Corp., priority 1996, dated 1998).

Test system: protein extravasation
Assay: Inhibition of protein extravasation, trigeminal stimulation assay
Assay type: in vivo, Guinea pigs
Conditions: guinea pig dura mater, [125I]-BSA extravasation after stimulation of the right trigeminal ganglion
Experimental: Compounds of the inventions were evaluated for their ability to block neurogenic inflammation via inhibition of protein extravasation using the trigeminal stimulation assay as described in Markowitz, et al. J, Neurosci. 1987, 7:4129 and Lee, et al. Brain Res, 1993, 626:303. This is believed to indicate a compound's ability to act as an agonist at the 5-HT1Da and/or 5-HT1F receptors.
Guinea pigs were anesthetized with pentobarbitone sodium (60 mg kg^-1, i.p.). Animals were placed in a stereotaxic frame (DKI 900, David Kopf Instruments, Tujunga, CA, U.S.A.). The right femoral vein was exposed and [^125I]-BSA ([…]) was injected as a bolus. With the incisor bar set at -1.5 mm from the horizontal line, the calvarium was exposed by a midline incision. Symmetrical burr holes (2 mm in diameter) were drilled at 3.7 mm posterior to the bregma and 3.2 mm lateral to the sagittal suture. Bipolar electrodes (50 mm shaft, Rhodes Medical Instruments, Woodland Hills, CA, U.S.A.) were lowered into the trigeminal ganglia to a depth of 9.5 mm from the dura mater overlying the dorsal surface of the brain. […] Radioactivity was determined on two sides with a gamma counter (Micromedic 4/600, Micromedic Systems, Inc., Huntsville, AL, U.S.A.) as previously described (Markowitz, et al., 1987 and Lee, et al., 1993).

**Q.** With CNS(=O)(=O)Cc1ccc2[nH]cc(CCN(C)C)c2c1 [sumatriptan] as the molecule, how does the ID50 read?
**A.** The ID50 was 3.3 to 7 nM/kg.
